For orientation: IC50 means the midpoint of a concentration-inhibition curve.

Consider one compound from PMC10536928, “Discovery of New Pyrrolo[2,3-d]pyrimidine Derivatives as Potential Multi-Targeted Kinase Inhibitors and Apoptosis Inducers” (Pharmaceuticals, 2023).

One test addresses T1, CDK2 (Homo sapiens, UniProt P24941).
T1 construct: purchased
Put plainly: In vitro protein kinase inhibition assay (ELISA kit). Particulars: triplicate. It counts as biochemical. The procedure: (§1) In accordance with the documented procedures, fifteen derivatives of the synthesized compounds were evaluated for their inhibitory effects on EGFR, VEGFR-2, Her2, and CDK2 using specific human ELISA kits (Enzyme-Linked Immunosorbent Assay) designed for each respective kinase enzyme. Initially, various concentrations of the synthesized compounds were combined with specific antibodies for each enzyme in individual wells of a 96-well plate, followed by incubation at room temperature for 2.5 h. Subsequently, the plate was washed, and a biotin antibody (100 µL), prepared in-house, was added and allowed to incubate at ambient temperature for 1 h. After another washing step, a solution of streptavidin (100 µL) was introduced to each well and left for 45 min at room temperature. Following a third round of washing, a TMB Substrate (100 µL) reagent was applied to all wells and incubated for 30 min at room temperature. Finally, the reaction was terminated by adding 50 µL of a stop solution, and the absorbance was directly measured at 450 nm. A standard curve was constructed, illustrating the relationship between concentration (X-axis) and absorbance (Y-axis).

The target of a further test is T2, VEGFR2 (Homo sapiens, UniProt P35968).
T2 construct: purchased
T2 sequence (P35968 20-1356): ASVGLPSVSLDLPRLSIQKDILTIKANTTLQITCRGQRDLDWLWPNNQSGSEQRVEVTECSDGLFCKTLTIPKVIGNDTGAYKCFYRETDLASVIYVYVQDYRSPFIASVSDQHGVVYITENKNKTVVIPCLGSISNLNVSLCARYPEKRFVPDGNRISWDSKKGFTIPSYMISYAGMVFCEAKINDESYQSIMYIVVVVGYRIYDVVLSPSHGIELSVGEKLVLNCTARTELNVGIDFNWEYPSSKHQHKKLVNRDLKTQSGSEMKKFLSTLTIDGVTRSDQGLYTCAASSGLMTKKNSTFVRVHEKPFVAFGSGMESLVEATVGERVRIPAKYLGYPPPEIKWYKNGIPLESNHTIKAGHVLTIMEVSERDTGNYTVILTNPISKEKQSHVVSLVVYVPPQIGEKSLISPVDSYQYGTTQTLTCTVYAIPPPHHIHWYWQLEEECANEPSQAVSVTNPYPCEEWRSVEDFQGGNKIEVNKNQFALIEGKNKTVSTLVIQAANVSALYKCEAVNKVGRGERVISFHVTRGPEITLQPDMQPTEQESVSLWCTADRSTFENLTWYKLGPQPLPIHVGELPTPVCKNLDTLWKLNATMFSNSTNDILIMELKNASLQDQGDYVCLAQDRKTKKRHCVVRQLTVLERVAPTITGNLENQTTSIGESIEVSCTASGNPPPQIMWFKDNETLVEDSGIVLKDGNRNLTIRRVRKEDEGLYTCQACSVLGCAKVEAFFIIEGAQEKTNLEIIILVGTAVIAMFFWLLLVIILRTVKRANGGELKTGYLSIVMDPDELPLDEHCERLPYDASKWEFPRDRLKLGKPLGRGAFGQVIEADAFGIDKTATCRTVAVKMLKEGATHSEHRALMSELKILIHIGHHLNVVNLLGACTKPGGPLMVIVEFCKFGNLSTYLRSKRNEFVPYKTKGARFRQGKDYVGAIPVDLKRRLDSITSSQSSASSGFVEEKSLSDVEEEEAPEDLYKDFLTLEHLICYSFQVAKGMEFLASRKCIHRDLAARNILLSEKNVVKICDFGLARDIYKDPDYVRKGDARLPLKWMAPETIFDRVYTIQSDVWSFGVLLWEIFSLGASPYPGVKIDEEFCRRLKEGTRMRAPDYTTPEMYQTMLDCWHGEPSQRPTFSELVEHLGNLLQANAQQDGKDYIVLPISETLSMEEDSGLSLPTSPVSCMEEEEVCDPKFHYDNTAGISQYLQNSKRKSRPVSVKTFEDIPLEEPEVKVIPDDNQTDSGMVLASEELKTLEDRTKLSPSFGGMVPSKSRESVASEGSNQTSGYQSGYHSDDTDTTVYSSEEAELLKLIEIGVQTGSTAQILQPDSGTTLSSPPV
The description is as above. It is filed as biochemical. Particulars: triplicate. On the procedure:
as §1

A further test addresses T3, Her2 (Homo sapiens, UniProt P04626).
T3 construct: purchased
The description is as above. It counts as biochemical. Conditions: triplicate. The procedure: as §1

The next test deals with T4, EGFR (Homo sapiens, UniProt P00533).
T4 construct: purchased
T4 sequence (P00533 25-1210): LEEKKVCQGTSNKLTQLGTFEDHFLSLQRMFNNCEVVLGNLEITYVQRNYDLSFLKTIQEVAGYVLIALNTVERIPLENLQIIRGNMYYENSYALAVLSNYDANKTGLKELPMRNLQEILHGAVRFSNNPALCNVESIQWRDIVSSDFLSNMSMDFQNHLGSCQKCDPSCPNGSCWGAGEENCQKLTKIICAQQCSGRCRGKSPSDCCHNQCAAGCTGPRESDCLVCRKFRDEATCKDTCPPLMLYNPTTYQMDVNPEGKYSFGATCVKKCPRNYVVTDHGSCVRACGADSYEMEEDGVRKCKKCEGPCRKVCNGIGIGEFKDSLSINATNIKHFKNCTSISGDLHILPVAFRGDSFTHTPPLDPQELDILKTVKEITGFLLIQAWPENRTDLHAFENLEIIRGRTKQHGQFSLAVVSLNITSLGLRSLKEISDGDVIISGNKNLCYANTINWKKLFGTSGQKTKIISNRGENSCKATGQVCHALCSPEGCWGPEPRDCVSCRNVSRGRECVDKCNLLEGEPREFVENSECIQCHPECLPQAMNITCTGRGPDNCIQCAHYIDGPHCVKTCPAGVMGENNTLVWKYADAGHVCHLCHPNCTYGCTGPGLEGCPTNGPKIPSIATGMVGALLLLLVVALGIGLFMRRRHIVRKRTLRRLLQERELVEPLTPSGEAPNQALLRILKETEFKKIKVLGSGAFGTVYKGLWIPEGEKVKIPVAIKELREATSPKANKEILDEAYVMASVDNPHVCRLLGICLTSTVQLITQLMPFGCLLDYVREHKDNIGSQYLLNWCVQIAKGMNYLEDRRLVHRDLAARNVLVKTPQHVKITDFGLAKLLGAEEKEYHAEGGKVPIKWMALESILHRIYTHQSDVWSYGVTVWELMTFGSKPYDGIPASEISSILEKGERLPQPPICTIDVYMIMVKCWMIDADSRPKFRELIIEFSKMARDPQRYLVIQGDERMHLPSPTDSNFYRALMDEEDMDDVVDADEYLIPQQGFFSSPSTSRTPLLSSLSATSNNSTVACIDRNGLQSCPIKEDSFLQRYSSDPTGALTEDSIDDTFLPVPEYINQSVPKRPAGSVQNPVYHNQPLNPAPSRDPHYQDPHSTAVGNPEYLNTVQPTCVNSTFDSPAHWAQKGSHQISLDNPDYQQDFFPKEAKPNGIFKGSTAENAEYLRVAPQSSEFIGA
Described as above. It is filed as biochemical. Particulars: triplicate. The procedure: as §1

In test [1] the test system is HepG2 cells. Put plainly: Cell cycle analysis (propidium iodide flow cytometry). It is filed as cell-based. The text has this:
The objective of the study was to evaluate the influence of the synthesized compounds on the progression of the cell cycle in HepG2 cells.
The observed modifications in cell cycle distribution following drug treatment indicate a potential mechanism of action involving cell cycle arrest, a commonly employed therapeutic strategy for suppressing cancer cell proliferation. By impeding cells in the G0–G1 phase, drugs can effectively prevent them from proceeding to the S phase, where DNA replication takes place, and ultimately lead to cell death. […] The cell cycle distribution index (CDI) is a metric that quantifies the rate of cell proliferation and can be derived from the percentage of cells in each phase of the cell cycle. The CDI was calculated using the formula: CDI = (G2/M + S)/[…], wherein G0/G1, S, and G2/M denote the percentages of cells in the respective phases of the cell cycle. The CDI values for the control and compound 5k were determined to be 1.35 and 1.03, respectively.
To investigate the impact of the synthesized compound 5k on cell cycle progression, the ab139418 Propidium Iodide flow cytometry kit/BD was utilized. Initially, HepG2 cells were seeded in triplicate at a density of 2 × 10^5 cells per well in 6-well plates and incubated for 24 h. […] Following treatment, the HepG2 cells were fixed with 70% ethanol and incubated for 12 h at 4 °C. Subsequently, the wells were washed with cold PBS, treated with RNase A (100 µL) at 37 °C for 30 min, and stained with Propidium Iodide (400 µL) in a dark environment at room temperature for another 30 min. The labeled cells were then analyzed using the Epics XLMCL™ flow cytometer equipment (Beckman Coulter, Apeldoorn, the Netherlands). Finally, the experimental results were analyzed using Turku Centre for Biotechnology software version 2.5.1 (Turku, Finland).
(Flow cytometry measures light scatter and fluorescence of single cells or particles in a stream.)

Test [2] deals with epithelioid cervix carcinoma (HeLa). Put plainly: MTT cytotoxicity assay. It counts as cell-based. Particulars: Homo sapiens, 24 h exposure, mean ± SD of triplicate.
The test system of test [3] is HepG2 cells. Put plainly: Annexin-V/propidium iodide double staining assay. Conditions: compound at its IC50, 24 h. It counts as cell-based. The procedure: To investigate the type of cell death induced by compound 5k, flow cytometry analysis was conducted. […] Subsequently, the cells were double stained with Annexin V and propidium iodide (PI). […] Apoptosis is a process of programmed cell death that occurs naturally in the body, while necrosis is a type of cell death that occurs due to damage or injury to the cell. […] In the early stage of the experiment, the percentage of apoptotic cells was 0.51% in the control group and 15.63% in the 5k treated group. In the late stage, the percentage of apoptotic cells was 0.29% in the control group and 9.74% in the 5k treated group.
In contrast, the percentage of necrotic cells was also higher in the 5k treated group compared to the control group. The percentage of necrotic cells was 1.58% in the control group and 4.17% in the 5k treated group. […] Further studies are needed to determine the underlying mechanisms of this effect and to assess the potential therapeutic applications of compound 5k in the treatment of diseases involving abnormal cell death.
To investigate the apoptotic effects of the synthesized compound 5k, HepG2 cells were cultured in triplicate at a density of 2.0 × 10^5 cells per well. Subsequently, the cells were treated with the selected compounds at their respective IC50 values determined by the MTT assay. After 24 h, the cells were detached using trypsin, collected, and then centrifuged. Following two washes with PBS, the cells were resuspended in 0.1 mL of binding buffer. Dual staining was performed by adding Annexin V-FITC (5 µL) and propidium iodide (5 µL) to the cell suspension, which was then incubated in the dark for 15 min at room temperature. Flow cytometry analysis was performed using the Epics XL-MCL™ flow cytometry equipment (Beckman Coulter, Apeldoorn, The Netherlands) with an excitation wavelength of 488 nm and an emission wavelength of 530 nm. Finally, the experimental results were analyzed using flowing “Turku Centre for Biotechnology” software, version 2.5.1 (Turku, Finland).

The subject of test [4] is four different cancer cell lines (MCF-7, HepG2, MDA-MB-231, HeLa). Description: MTT cytotoxicity assay, range over the four cell lines. It counts as cell-based. Conditions: read-out: IC50 values, range over the tested cancer cell lines. The procedure:
The cytotoxic effects of compounds 5a–m were evaluated using a standard MTT method against four different cancer cell lines, namely mammary gland cancer (MCF-7), hepatocellular carcinoma (HepG2), breast cancer (MDA-MB-231), and epithelioid cervix carcinoma (HeLa). […] These findings highlight the potential of these compounds as candidates for further development as cytotoxic agents for cancer treatment.
The cytotoxicity of compounds 5a–m was assessed against various cancer cell lines and one normal cell line using the described methodology. In brief, the cells were cultured in 96-well plates with a density of 1.0 × 10^4 cells per well, supplemented with 10% fetal bovine serum (FBS), an antibiotic cocktail, and RPMI 11,640 medium. The cells were then incubated for 48 h with 5% CO2 and 100% relative humidity at 37 °C. […] Following treatment, the addition of 20 µL of MTT solution was added to each well and incubation was continued for another 4 h, after which dimethyl sulfoxide (100 µL) was used to dissolve the resulting insoluble formazan. The absorbance was measured at 570 nm using a BioTek EXL 800 plate reader (Agilent Technologies, CA, USA). By comparing the absorbance of treated samples to untreated samples, the relative cell viability percentage was calculated as (A570 of treated samples/A570 of untreated sample) × 100. The IC50 values were determined based on triplicate measurements.
For orientation: Formazan colour is commonly taken as a measure of viable cells.

T3 sequence (P04626 23-1255): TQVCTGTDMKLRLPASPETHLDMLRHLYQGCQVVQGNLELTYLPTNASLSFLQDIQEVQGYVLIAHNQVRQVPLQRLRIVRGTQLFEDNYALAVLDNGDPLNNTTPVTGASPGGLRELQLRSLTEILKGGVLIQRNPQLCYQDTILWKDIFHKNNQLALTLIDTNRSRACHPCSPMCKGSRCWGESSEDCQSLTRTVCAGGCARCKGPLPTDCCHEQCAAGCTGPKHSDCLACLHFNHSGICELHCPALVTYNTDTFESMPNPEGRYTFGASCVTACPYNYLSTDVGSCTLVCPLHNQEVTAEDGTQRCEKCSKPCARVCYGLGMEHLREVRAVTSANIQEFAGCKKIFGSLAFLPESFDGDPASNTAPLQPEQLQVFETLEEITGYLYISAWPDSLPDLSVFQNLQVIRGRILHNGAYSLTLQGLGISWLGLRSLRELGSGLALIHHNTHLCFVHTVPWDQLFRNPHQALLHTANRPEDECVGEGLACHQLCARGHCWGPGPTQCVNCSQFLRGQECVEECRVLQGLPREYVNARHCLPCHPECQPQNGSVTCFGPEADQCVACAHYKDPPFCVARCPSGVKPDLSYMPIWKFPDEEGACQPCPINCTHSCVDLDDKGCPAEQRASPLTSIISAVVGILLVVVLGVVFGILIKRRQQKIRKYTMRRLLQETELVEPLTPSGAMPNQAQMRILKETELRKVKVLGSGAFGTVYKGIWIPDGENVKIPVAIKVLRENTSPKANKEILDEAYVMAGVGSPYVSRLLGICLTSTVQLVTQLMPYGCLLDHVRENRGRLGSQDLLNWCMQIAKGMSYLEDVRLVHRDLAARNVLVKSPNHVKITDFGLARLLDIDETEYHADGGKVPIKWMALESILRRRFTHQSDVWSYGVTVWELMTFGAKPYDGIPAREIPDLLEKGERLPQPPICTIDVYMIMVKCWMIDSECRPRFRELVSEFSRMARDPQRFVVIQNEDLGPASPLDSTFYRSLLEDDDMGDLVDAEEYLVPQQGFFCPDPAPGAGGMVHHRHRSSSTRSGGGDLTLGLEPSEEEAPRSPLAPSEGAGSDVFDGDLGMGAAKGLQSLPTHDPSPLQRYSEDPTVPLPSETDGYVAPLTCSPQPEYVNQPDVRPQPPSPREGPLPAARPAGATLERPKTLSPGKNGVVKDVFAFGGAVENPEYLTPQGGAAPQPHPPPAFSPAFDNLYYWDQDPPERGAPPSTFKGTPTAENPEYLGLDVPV

Turning to `O=C(N/N=C/c1ccc(Cl)c(Cl)c1)c1ccc(Nc2ncnc3[nH]ccc23)cc1` [Compound 5k, (E)-4-((7H-Pyrrolo[2,3-d]pyrimidin-4-yl)amino)-N’-(3,4-dichlorobenzylidene)benzohydrazide], the IC50 on CDK2 is 204 nM; on VEGFR2 it was 136 nM; against Her2, 40 nM; at EGFR it was 79 nM; in test [2] it was 57.8 ± 3.1 µM; in test [4], 29000 to 59000 nM. The “Cell Cycle Distribution Index (CDI)” value with HepG2 cells [1] (CDI = (G2/M + S)/G0/G1, control 1.35) is on record as 1.03. In addition, in the test on HepG2 cells [1] (compound at its IC50, 24 h, control 19.38), the “DNA Content (%) %G2/M” value is 18.3%. Further, the “DNA Content (%) %S” value in the test with HepG2 cells [1] (compound at its IC50, 24 h, control 36.76) was determined as 32.52%. In the test on HepG2 cells [1] (compound at its IC50, 24 h, control 43.86), the “DNA Content (%) %G0–G1” value was determined as 49.18%. Further, the “Apoptosis Late” value with HepG2 cells [3] (control 0.29) amounted to 9.74%. The “Apoptosis Early” value in the test with HepG2 cells [3] (control 0.51) is 15.63%. The Necrosis with HepG2 cells [3] (control 1.58) worked out at 4.17%.
